Like-named read-outs stand apart in the source and are kept apart here.
Legend:
A549 cells = experiment: MTT cell proliferation assay; format: cell-based; details: Homo sapiens; A549; 50 μg/mL; 48 h; read-out: inhibition of cells (antiproliferative activity, MTT)
Method: (§1) Inhibition of cell proliferation by PC and EA was measured with the MTT assay. Human lung cancer A549 and H1299 cells were obtained from ATCC (Manassas, VA, USA) and maintained in DMEM supplemented with 10% fetal calf serum (FCS), 1% penicillin/streptomycin. Cells were plated in 96-well culture plates (5 × 10^3 cells/well). After 24 h incubation, cells were treated with vehicle alone (0.1% DMSO) and PC and EA (12.5–200 μg/mL) extracts for 48 h. Then, the culture medium was replaced by 100 μL of fresh medium containing 0.5 mg/mL MTT, and the plates were incubated for 2 h at 37°C. The medium was then removed and was replaced by 200 μL of DMSO to solubilize the converted purple dye. The absorbance was measured with a spectrophotometer microplate reader at a wavelength of 570 nm.

H1299 cells = experiment: MTT cell proliferation assay; format: cell-based; details: Homo sapiens, NCI-H1299; H1299; 50 μg/mL; 48 h; read-out: inhibition of cells (antiproliferative activity, MTT)
Method: as §1

[1] = tested on: Salmonella typhimurium TA100; experiment: Ames antimutagenicity assay (preincubation); details: for inhibition at 50 µM / inhibition at 100 µM / inhibition at 250 µM / inhibition at 500 µM: Salmonella enterica, TYPHIMURIUM;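 for all read-outs here: compound and mutagen preincubated together 30 min at 37°C before bacteria added, then plates incubated 48 h at 37°C, inhibition relative to mutagen-alone revertants after subtracting the negative control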
Method: In the preincubation experiment, test compounds and mutagen, each having a volume of 0.1 mL of varying concentrations, were preincubated at 37°C for 30 min and then 0.1 mL of 1 × 10^7 CFU/mL density of the bacterial culture was added, followed by the addition of 2.5 mL of top agar at 45°C (containing 0.5% NaCl and 0.6% agar) supplemented with 0.5 mM histidine-biotin. […] The combined solutions were vortexed and poured onto minimal glucose plates (40% glucose solution and Vogel Bonner medium). The plates were incubated at 37°C for 48 h and the numbers of histidine-independent revertants colonies were scored.
Survival of the bacteria was routinely monitored for each experiment. Parallel controls were run with compounds alone at all concentrations to test the possible toxicity. The concentrations of the test samples for investigating the antimutagenicity were 50, 100, 200, and 500 μM. […] All the test samples and mutagens were dissolved in DMSO (final conc., 0.01%). […] Plates were set up in triplicate for each concentration and the entire experiment was repeated three times. Inhibition of mutagenicity was expressed as percentage decrease of reverse mutation and calculated as (1) Percent inhibition=[(a−b)/(a−c)]×100, where a = number of histidine revertants induced by mutagen, b = number of histidine revertants induced by mutagen in the presence of test compound, and c = number of revertants induced in negative control.

[2] = tested on: Salmonella typhimurium TA102; experiment: Ames antimutagenicity assay (preincubation); details: Salmonella enterica, TYPHIMURIUM;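 note: compound and mutagen preincubated 30 min at 37 °C before adding bacteria, His+ revertant colonies counted after 48 h at 37 °C, inhibition relative to mutagen-alone minus negative-control revertants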

Work on `O=c1oc2c(O)c(O)cc3c(=O)oc4c(O)c(O)cc1c4c23` [Ellagic acid, ellagic acid] yielded an inhibition at 50 µg/mL (A549 cells) of 39%, an inhibition at 50 µg/mL (H1299 cells) of 34% and an inhibition at 50 µM ([1]; read-out: % inhibition of mutagenicity, TA 100, 50 μM + 2AF, S9) of 22.5%. For the same compound, the inhibition at 50 µM ([1]; read-out: % inhibition of mutagenicity, TA 100, 50 μM + BP, S9) was 21.8%, the inhibition at 50 µM ([1]; read-out: % inhibition of mutagenicity, TA 100, 50 μM + MMS, no S9) was 8% and the inhibition at 50 µM ([1]; read-out: % inhibition of mutagenicity, TA 100, 50 μM + NaN3, no S9) was 11.4%. The inhibition at 100 µM ([1]; read-out: % inhibition of mutagenicity, TA 100, 100 μM + 2AF, S9) was 46.1%, the inhibition at 100 µM ([1]; read-out: % inhibition of mutagenicity, TA 100, 100 μM + BP, S9) was 42.8% and the inhibition at 100 µM ([1]; read-out: % inhibition of mutagenicity, TA 100, 100 μM + MMS, no S9) was 26.4%. For the same compound, the inhibition at 100 µM ([1]; read-out: % inhibition of mutagenicity, TA 100, 100 μM + NaN3, no S9) was 25.6%, the inhibition at 250 µM ([1]; read-out: % inhibition of mutagenicity, TA 100, 250 μM + BP, S9) was 70% and the inhibition at 250 µM ([1]; read-out: % inhibition of mutagenicity, TA 100, 250 μM + MMS, no S9) was 45.1%. The inhibition at 250 µM ([1]; read-out: % inhibition of mutagenicity, TA 100, 250 μM + NaN3, no S9) was 46.4%, the inhibition at 500 µM ([1]; read-out: % inhibition of mutagenicity, TA 100, 500 μM + 2AF, S9) was 83.8% and the inhibition at 500 µM ([1]; read-out: % inhibition of mutagenicity, TA 100, 500 μM + BP, S9) was 88.9%. The inhibition at 500 µM ([1]; read-out: % inhibition of mutagenicity, TA 100, 500 μM + MMS, no S9) was 65.3%, the inhibition at 500 µM ([1]; read-out: % inhibition of mutagenicity, TA 100, 500 μM + NaN3, no S9) was 65.9% and the “Number of His+ revertants colonies/plate” value ([1]; TA 100, 50 μM + 2AF, S9) was 426.0 ± 18.6 colonies/plate. The “Number of His+ revertants colonies/plate” value ([1]; TA 100, 50 μM + BP, S9) was 580.3 ± 25.6 colonies/plate, the “Number of His+ revertants colonies/plate” value ([1]; TA 100, 50 μM + MMS, no S9) was 900.3 ± 16.3 colonies/plate and the “Number of His+ revertants colonies/plate” value ([1]; TA 100, 50 μM + NaN3, no S9) was 340.7 ± 9.4 colonies/plate. For the same compound, the “Number of His+ revertants colonies/plate” value ([1]; TA 100, 100 μM + 2AF, S9) was 350.0 ± 12.8 colonies/plate, the “Number of His+ revertants colonies/plate” value ([1]; TA 100, 100 μM + BP, S9) was 472.3 ± 19.4 colonies/plate and the “Number of His+ revertants colonies/plate” value ([1]; TA 100, 100 μM + MMS, no S9) was 754.0 ± 8.2 colonies/plate. The “Number of His+ revertants colonies/plate” value ([1]; TA 100, 100 μM + NaN3, no S9) was 312.3 ± 8.4 colonies/plate, the “Number of His+ revertants colonies/plate” value ([1]; TA 100, 250 μM + BP, S9) was 336.0 ± 17.6 colonies/plate and the “Number of His+ revertants colonies/plate” value ([1]; TA 100, 250 μM + MMS, no S9) was 598.7 ± 14.2 colonies/plate. The “Number of His+ revertants colonies/plate” value ([1]; TA 100, 250 μM + NaN3, no S9) was 266.0 ± 7.8 colonies/plate, the “Number of His+ revertants colonies/plate” value ([1]; TA 100, 500 μM + 2AF, S9) was 240.7 ± 9.8 colonies/plate and the “Number of His+ revertants colonies/plate” value ([1]; TA 100, 500 μM + BP, S9) was 245.7 ± 14.4 colonies/plate. The “Number of His+ revertants colonies/plate” value ([1]; TA 100, 500 μM + MMS, no S9) was 420.3 ± 6.9 colonies/plate, the “Number of His+ revertants colonies/plate” value ([1]; TA 100, 500 μM + NaN3, no S9) was 210.3 ± 12.4 colonies/plate and the inhibition at 50 µM ([2]; read-out: % inhibition of mutagenicity, TA 102, 50 μM + 2AF, S9) was 17.5%. The inhibition at 50 µM ([2]; read-out: % inhibition of mutagenicity, TA 102, 50 μM + BP, S9) was 11.5%, the inhibition at 50 µM ([2]; read-out: % inhibition of mutagenicity, TA 102, 50 μM + MMS, no S9) was 18.5% and the inhibition at 50 µM ([2]; read-out: % inhibition of mutagenicity, TA 102, 50 μM + NaN3, no S9) was 21.9%. It also gave an inhibition at 100 µM ([2]; read-out: % inhibition of mutagenicity, TA 102, 100 μM + 2AF, S9) of 45.9%, an inhibition at 100 µM ([2]; read-out: % inhibition of mutagenicity, TA 102, 100 μM + BP, S9) of 23.6% and an inhibition at 100 µM ([2]; read-out: % inhibition of mutagenicity, TA 102, 100 μM + MMS, no S9) of 30.3%. For the same compound, the inhibition at 100 µM ([2]; read-out: % inhibition of mutagenicity, TA 102, 100 μM + NaN3, no S9) was 40.3%, the inhibition at 250 µM ([2]; read-out: % inhibition of mutagenicity, TA 102, 250 μM + BP, S9) was 46.6% and the inhibition at 250 µM ([2]; read-out: % inhibition of mutagenicity, TA 102, 250 μM + MMS, no S9) was 44.3%. It also gave an inhibition at 250 µM ([2]; read-out: % inhibition of mutagenicity, TA 102, 250 μM + NaN3, no S9) of 50.7%, an inhibition at 500 µM ([2]; read-out: % inhibition of mutagenicity, TA 102, 500 μM + 2AF, S9) of 89% and an inhibition at 500 µM ([2]; read-out: % inhibition of mutagenicity, TA 102, 500 μM + BP, S9) of 83.7%. For the same compound, the inhibition at 500 µM ([2]; read-out: % inhibition of mutagenicity, TA 102, 500 μM + MMS, no S9) was 72.4%.
